# Several values for one entry are separate records, joined by “and”; a condition that tells them apart may be missing. Equal entries are not always repeated. Where two headings read alike, the source gives them in different places.
# How the values were obtained:
# human MAO-A [1] = target: T1, human MAO-A (Homo sapiens, UniProt P21397); assay: biochemical; type: biochemical; conditions: for huMAO-A % inhibition / inhibition at 10 µM: at 10 µM concentration, mean ± SD; for IC50: mean ± SD of three independent determinations, ~10 means 50–60% inhibition at 10 µM
# T1 construct: purchased Sigma Aldrich; host or cells: insect cells infected with baculovirus (microsomes)
# T1 sequence (P21397 1-527): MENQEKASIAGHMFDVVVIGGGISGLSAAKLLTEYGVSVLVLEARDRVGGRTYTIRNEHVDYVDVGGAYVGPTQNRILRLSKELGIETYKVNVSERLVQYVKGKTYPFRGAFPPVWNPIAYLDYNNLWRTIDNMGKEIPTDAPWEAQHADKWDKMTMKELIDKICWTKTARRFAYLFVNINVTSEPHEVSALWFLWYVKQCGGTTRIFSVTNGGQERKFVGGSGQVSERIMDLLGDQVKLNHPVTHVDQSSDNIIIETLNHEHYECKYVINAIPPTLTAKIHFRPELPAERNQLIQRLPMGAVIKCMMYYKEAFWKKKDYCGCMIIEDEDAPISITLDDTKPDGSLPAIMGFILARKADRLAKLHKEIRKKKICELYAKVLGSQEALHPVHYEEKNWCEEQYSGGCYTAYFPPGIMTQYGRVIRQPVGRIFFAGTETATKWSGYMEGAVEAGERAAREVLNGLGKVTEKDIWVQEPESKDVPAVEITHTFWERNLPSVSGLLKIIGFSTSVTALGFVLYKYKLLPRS
# Experimental: (§1) The inhibition assays of human monoamine oxidases were conducted using a fluorescence-based method with kynuramine as a non-selective substrate for each isoform, MAO-A/B [44, 45, 46]. Recombinant human MAO-A and MAO-B (microsomes from insect cells infected with baculovirus; Sigma Aldrich, St. Louis, MO, USA) (Merk Life Science S.r.l., Milan, Italy) were used. The measurements were performed in triplicate in black round-bottom polystyrene 96-well plates (Greiner Bio-One, Kremsmünster, Austria). […] In the MAO inhibition assays, all compounds were initially screened at a concentration of 10 µM. Each of them was preincubated at 37 °C for 20 min with 50 µM kynuramine in a phosphate buffer (PBS, 0.1 M, pH 8.0), adjusted to 0.39 osmolarity with KCl. After adding recombinant human MAO-A/B (250 U/mg and 59 U/mg, respectively) and incubating for another 30 min, NaOH was added. The fluorescence was measured at excitation/emission wavelengths of 310/400 nm. […] The IC50 is reported as the mean ± SD of three independent experiments, each performed in duplicate.
# human huMAO-B = target: T2, human huMAO-B (Homo sapiens, UniProt P27338); assay: biochemical; type: biochemical; conditions: for huMAO-B % inhibition / inhibition at 10 µM: at 10 µM concentration, mean ± SD
# T2 construct: purchased Sigma Aldrich; host or cells: insect cells infected with baculovirus (microsomes)
# T2 sequence (P27338 1-520): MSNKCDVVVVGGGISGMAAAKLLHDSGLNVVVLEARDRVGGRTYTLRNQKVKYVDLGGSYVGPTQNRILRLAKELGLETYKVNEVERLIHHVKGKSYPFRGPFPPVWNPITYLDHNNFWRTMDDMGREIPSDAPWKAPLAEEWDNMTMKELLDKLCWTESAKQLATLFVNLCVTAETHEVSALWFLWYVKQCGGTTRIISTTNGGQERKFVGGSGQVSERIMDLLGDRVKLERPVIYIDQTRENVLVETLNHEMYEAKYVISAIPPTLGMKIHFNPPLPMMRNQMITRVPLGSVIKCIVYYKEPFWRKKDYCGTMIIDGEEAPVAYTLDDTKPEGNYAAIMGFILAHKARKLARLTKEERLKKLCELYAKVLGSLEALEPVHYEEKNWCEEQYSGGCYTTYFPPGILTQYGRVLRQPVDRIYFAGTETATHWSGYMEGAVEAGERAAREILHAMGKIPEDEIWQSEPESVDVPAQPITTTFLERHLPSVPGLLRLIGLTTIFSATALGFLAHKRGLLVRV
# Experimental: as §1
# electric eel eeAChE = target: T3, electric eel eeAChE (Electrophorus electricus, UniProt O42275); assay: biochemical; conditions: for eeAChE % inhibition / inhibition at 10 µM: at 10 µM concentration, mean ± SD; for IC50: mean ± SD of three independent determinations, ~10 means 50–60% inhibition at 10 µM
# T3 construct: Acetylcholinesterase from electric eel and butyrylcholinesterase from equine serum (Sigma Aldrich) were employed; purchased Sigma Aldrich; host or cells: electric eel (natural source)
# T3 sequence (O42275 24-633): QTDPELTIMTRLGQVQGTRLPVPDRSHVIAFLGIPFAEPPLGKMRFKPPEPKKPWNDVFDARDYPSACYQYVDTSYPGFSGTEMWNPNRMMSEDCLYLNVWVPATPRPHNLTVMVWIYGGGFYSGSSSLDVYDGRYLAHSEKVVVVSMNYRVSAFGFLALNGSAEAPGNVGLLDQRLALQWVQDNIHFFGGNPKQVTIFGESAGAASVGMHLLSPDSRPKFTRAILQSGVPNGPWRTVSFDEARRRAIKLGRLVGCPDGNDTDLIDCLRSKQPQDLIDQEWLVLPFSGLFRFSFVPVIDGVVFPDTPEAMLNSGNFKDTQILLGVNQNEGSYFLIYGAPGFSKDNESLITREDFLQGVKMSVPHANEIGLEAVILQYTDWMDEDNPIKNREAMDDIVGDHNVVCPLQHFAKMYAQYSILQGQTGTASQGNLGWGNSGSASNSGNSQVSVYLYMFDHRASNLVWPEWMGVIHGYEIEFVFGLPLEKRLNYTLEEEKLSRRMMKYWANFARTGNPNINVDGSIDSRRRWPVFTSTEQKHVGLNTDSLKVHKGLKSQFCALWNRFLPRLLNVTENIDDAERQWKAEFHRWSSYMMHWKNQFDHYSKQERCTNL
# horse serum eqBChE = target: T4, horse serum eqBChE (Equus caballus, UniProt P81908); assay: biochemical; type: biochemical; conditions: for eqBChE inhibition class / inhibition at 10 µM / eqBChE % inhibition: at 10 µM concentration
# T4 construct: Acetylcholinesterase from electric eel and butyrylcholinesterase from equine serum (Sigma Aldrich) were employed; purchased Sigma Aldrich; host or cells: equine serum
# T4 sequence (P81908 whole entry): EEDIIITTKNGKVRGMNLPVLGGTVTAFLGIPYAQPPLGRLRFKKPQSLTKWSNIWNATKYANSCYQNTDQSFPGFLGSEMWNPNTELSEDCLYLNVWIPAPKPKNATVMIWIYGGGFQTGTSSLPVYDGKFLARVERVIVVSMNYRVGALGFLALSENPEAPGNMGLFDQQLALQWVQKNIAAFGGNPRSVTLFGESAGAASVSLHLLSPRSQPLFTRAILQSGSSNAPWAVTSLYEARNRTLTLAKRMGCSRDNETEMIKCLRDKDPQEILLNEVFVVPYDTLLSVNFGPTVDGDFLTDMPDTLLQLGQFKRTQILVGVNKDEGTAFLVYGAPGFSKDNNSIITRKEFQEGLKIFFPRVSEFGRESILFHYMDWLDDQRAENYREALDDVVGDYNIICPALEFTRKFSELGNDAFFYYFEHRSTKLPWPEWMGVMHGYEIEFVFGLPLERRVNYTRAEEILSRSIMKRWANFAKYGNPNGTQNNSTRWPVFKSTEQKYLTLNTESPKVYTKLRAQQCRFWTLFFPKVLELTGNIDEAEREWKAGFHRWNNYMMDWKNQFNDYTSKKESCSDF
# Experimental: (§2) Cholinesterase inhibition assays were carried out using the Ellman spectrophotometric method, modified for a 96-well plate format. Acetylcholinesterase from electric eel and butyrylcholinesterase from equine serum (Sigma Aldrich) were employed. The measurements were performed in triplicate using clear, flat-bottom polystyrene plates (Greiner Bio-One).
# human huAChE = human huAChE (Homo sapiens, UniProt P22303); assay: biochemical; type: biochemical
# human huAChE, sequence (P22303 32-614): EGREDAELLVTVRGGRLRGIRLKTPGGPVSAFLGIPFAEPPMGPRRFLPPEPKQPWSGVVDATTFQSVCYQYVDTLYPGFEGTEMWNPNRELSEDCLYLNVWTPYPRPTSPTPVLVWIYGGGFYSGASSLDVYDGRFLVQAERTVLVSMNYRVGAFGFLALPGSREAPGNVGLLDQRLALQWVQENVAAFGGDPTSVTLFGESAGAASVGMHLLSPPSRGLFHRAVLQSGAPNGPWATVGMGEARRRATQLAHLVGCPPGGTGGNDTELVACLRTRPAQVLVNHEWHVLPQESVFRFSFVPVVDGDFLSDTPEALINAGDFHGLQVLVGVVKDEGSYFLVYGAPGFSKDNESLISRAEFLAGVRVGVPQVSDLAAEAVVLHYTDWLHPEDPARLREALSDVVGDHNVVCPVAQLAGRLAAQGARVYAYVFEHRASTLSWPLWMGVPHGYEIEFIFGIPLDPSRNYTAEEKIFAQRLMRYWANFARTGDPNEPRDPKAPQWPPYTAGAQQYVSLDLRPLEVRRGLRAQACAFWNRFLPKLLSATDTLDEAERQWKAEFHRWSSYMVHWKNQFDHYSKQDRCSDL
# Experimental: The inhibition of human huAChE was also evaluated for five compounds.
# as §2
# human MAO-A [2] = target: T1, human MAO-A; assay: Inhibition kinetics and time course of MAO-A inhibition; type: biochemical; conditions: for reversibility of MAO-A inhibition: time course, absorbance of 4-hydroxyquinoline at 316 nm, inhibitor close to IC50
# Excerpt: For the sake of clarity, the position of the Mannich base (-CH2NR2) on the main coumarin core will be indicated as C8, whereas the positions of Cl or Br and OMe on the 4-coumarin-3-yl moiety will be indicated as C6′ and C8′.
# Time courses of MAO-A inhibition by 2b and 5b, using a spectrophotometric assay measuring the absorbance of 4-
# (1 picture or pasted object on this page, not shown here)
# [3] = Kinetic solubility in aqueous buffers (RP-HPLC); type: physicochemical; conditions: PBS buffer, 25 °C, pH 7.4, aqueous buffer, kinetic from dmso stock, PBS (50 mM, pH 7.4, 0.15 M KCl) at 25 ± 1 °C, n = 3; read-out: Solubility Exp.
# Experimental: Water solubility and lipophilicity parameters were measured following previously reported methods. […] The mixture was then separated by centrifugation at 2500 rpm for 3 min. Immediately after filtration, 100 µL of the filtrate was mixed with an equal volume of a 1:1 (v/v) DMSO and PBS (50 mM, pH 7.4, KCl 0.15 M) or HCl (0.01 M, pH 2, KCl 0.15 M) solution to prevent precipitation from the saturated solution and subsequently analyzed by HPLC. The peak area was compared to a calibration curve of the tested compound in MeOH. The analytical parameters were set as follows. Mobile phase: MeOH/water pH 2.8 (acetic acid 0.5% v/v) at different percentages depending on the retention time of each test compound; stationary phase: Phenomenex, Kinetex 5 µ, C8, (150 × 3 mm); flux: […]; injection: 2 µL; λ 330 nm. The analyses were performed on the Agilent HPLC 1260 Infinity Series Integrated System (Agilent Technologies, Milan, Italy).
# [4] = Lipophilicity by RP-HPLC (log k'w); type: physicochemical; conditions: C18, extrapolated to 100% water mobile phase
# Experimental: The lipophilicity of the five compounds in Table 4 was assessed by calculation and experimental approaches. As a calculated lipophilicity parameter (log Pcalc), we took from the SwissADME free website (http://www.swissadme.ch) the ‘Consensus Log Po/w’, that is, the arithmetic mean of octanol/water log Ps calculated by five methods (iLOGP, XLOGP3, WLOGP, MLOGP, and SILICOS-IT).
# The lipophilicity parameters were determined by an RP-HPLC technique. In short, methanolic solutions of the examined compounds (1 mg·mL^−1) were analyzed by the Agilent 1260 infinite HPLC system (Agilent Technologies, Milan, Italy) equipped with a diode array detector (DAD), using a Phenomenex C18-column (Kinetex 5 μ, 100 Å, 150 × 3 mm) as the stationary phase and MeOH/water buffer mobile phases with different v/v composition (i.e., mobile phases containing 0.05 increments of MeOH volume fractions in 10 mM ammonium formate buffer at pH 4.5; φMeOH ranging between 0.70 and 0.20). The chromatographic measurements were carried out at 25 ± 1 °C, flow rate of 0.5 mL·min^−1, and detection at λ 330 nm. The log of capacity factors of each compound at different mobile phase compositions was calculated (log k′ = log (tR − t0)/t0, where tR represents the retention time of the solute and t0 is the column dead time). For each compound, the equation of the linear relationship between log k′ and φMeOH (R^2 > 0.991) on at least five datapoints, each from duplicate, was derived by regression analysis and the intercept at the y-axis (i.e., φMeOH = 0) calculated as the lipophilicity parameter log k′w.
# [5] = mean ± SD, read-out: eqBChE % inhibition
# [6] = mean ± SD of three independent determinations, ~10 means 50–60% inhibition at 10 µM
structure (smiles),measurement,setting,value
COCCN(CCOC)Cc1c(O)ccc2c(-c3cc4cc(Cl)ccc4oc3=O)cc(=O)oc12 [Compound 6b],huMAO-A % inhibition,human MAO-A [1],[45 ± 3] %
same,huMAO-B % inhibition,human huMAO-B,[35 ± 9] %
same,eeAChE % inhibition,electric eel eeAChE,[16 ± 4] %
same,eqBChE inhibition class,horse serum eqBChE,i.a. (compounds displaying average % inhibition less than 10% at 10 µM concentration)
"CCCCN(C)Cc1c(O)ccc2c(-c3cc4cccc(OC)c4oc3=O)cc(=O)oc12 [Compound 5d, 8-((butyl(methyl)amino)methyl)-4-(8-methoxy-2-oxo-2H-chromen-3-yl)-7-hydroxy-2H-chromen-2-one]",inhibition at 10 µM,human MAO-A [1],39%
same,IC50,human huMAO-B,~10 µM
same,IC50,electric eel eeAChE,< 10 µM and 7.8 µM
same,inhibition at 10 µM,horse serum eqBChE; [5],40%
CCCCN(C)Cc1c(O)ccc2c(-c3cc4cc(Cl)ccc4oc3=O)cc(=O)oc12 [Compound 5b],IC50,human MAO-A [1],1.85 ± 0.11 µM
same,IC50,human huMAO-B; [6],~10 µM
same,eeAChE % inhibition,electric eel eeAChE,[25 ± 5] %
same,IC50,human huAChE; [6],~10 µM
same,eqBChE % inhibition,horse serum eqBChE; mean ± SD,[17 ± 7] %
same,mode of inhibition of MAO-A,human MAO-A [2]; Michaelis–Menten and Lineweaver–Burk plots,competitive
same,Ki,"human MAO-A [2]; human MAO-A, competitive inhibition, read-out: inhibition constant (Ki) MAO-A",0.326 µM
same,reversibility of MAO-A inhibition,human MAO-A [2],reversible
COc1cccc2cc(-c3cc(=O)oc4c(CN(C)Cc5ccccc5)c(O)ccc34)c(=O)oc12 [Compound 8d],huMAO-A % inhibition,human MAO-A [1],[31 ± 4] %
same,huMAO-B % inhibition,human huMAO-B,[42 ± 3] %
same,IC50,electric eel eeAChE,~10 µM
same,IC50,horse serum eqBChE; [6],~10 µM
CN(Cc1ccccc1)Cc1c(O)ccc2c(-c3cc4cc(Cl)ccc4oc3=O)cc(=O)oc12 [Compound 8b],IC50,human MAO-A [1],~10 µM
same,huMAO-B % inhibition,human huMAO-B,[38 ± 3] %
same,eeAChE % inhibition,electric eel eeAChE,[16 ± 6] %
same,eqBChE inhibition class,horse serum eqBChE,i.a. (compounds displaying average % inhibition less than 10% at 10 µM concentration)
"C#CCN(C)CCCOc1ccc(Cl)cc1Cl [Clorgiline, reference compound]",reversibility of MAO-A inhibition,human MAO-A [2],completely flattened
CCCN(CCC)Cc1c(O)ccc2c(-c3cc4ccccc4oc3=O)cc(=O)oc12 [Compound 4a],inhibition at 10 µM,human MAO-A [1],29%
same,inhibition at 10 µM,human huMAO-B,33%
same,inhibition at 10 µM,electric eel eeAChE,37%
same,inhibition at 10 µM,horse serum eqBChE; [5],22%
"COCCN(CCOC)Cc1c(O)ccc2c(-c3cc4cccc(OC)c4oc3=O)cc(=O)oc12 [Compound 6d, 8-((bis(2-methoxyethyl)amino)methyl)-4-(8-methoxy-2-oxo-2H-chromen-3-yl)-7-hydroxy-2H-chromen-2-one]",inhibition at 10 µM,human MAO-A [1],26%
same,inhibition at 10 µM,human huMAO-B,31%
same,inhibition at 10 µM,electric eel eeAChE,20%
same,inhibition at 10 µM,horse serum eqBChE; read-out: eqBChE inhibition class,< 10%
COc1cccc2cc(-c3cc(=O)oc4c(CN(CC(C)C)CC(C)C)c(O)ccc34)c(=O)oc12 [Compound 7d],huMAO-A % inhibition,human MAO-A [1],[27 ± 3] %
same,huMAO-B % inhibition,human huMAO-B,[31 ± 2] %
same,IC50,electric eel eeAChE,~10 µM
same,eqBChE % inhibition,horse serum eqBChE; mean ± SD,[34 ± 3] %
"COc1cccc2cc(-c3cc(=O)oc4c(CN(C)C)c(O)ccc34)c(=O)oc12 [Compound 2d, 8-((dimethylamino)methyl)-4-(8-methoxy-2-oxo-2H-chromen-3-yl)-7-hydroxy-2H-chromen-2-one]",inhibition at 10 µM,human huMAO-B,28%
same,inhibition at 10 µM,electric eel eeAChE,39%
same,inhibition at 10 µM,horse serum eqBChE; [5],25%
same,solubility at 2 h,[3],196 µM
same,Log k’w (polycratic capacity factor),[4],2.32
"CCCN(CCC)Cc1c(O)ccc2c(-c3cc4cccc(OC)c4oc3=O)cc(=O)oc12 [Compound 4d, 8-((dipropylamino)methyl)-4-(8-methoxy-2-oxo-2H-chromen-3-yl)-7-hydroxy-2H-chromen-2-one]",inhibition at 10 µM,human MAO-A [1],29%
same,inhibition at 10 µM,human huMAO-B,43%
same,IC50,electric eel eeAChE,< 10 µM and 3.05 µM
same,IC50,human huAChE,0.97 ± 0.2 µM
same,inhibition at 10 µM,horse serum eqBChE; [5],14%

# Source: PMC12562640, “Investigating Amphoteric 3,4′-Biscoumarin-Based ortho-[(Dialkylamino)methyl]phenols as Dual MAO and ChE Inhibitors” (International Journal of Molecular Sciences, 2025)
